Data on 12 compounds can be found in US20250215030A1, “STAT MODULATORS AND USES THEREOF” (Recludix Pharma, Inc., priority 2022, published 2025).

In assay [1] the target is T1, pSTAT6 (pY641-STAT6) (Homo sapiens, UniProt P42226).
T1 construct: host or cells: cryopreserved PBMC
T1 sequence (P42226 1-847): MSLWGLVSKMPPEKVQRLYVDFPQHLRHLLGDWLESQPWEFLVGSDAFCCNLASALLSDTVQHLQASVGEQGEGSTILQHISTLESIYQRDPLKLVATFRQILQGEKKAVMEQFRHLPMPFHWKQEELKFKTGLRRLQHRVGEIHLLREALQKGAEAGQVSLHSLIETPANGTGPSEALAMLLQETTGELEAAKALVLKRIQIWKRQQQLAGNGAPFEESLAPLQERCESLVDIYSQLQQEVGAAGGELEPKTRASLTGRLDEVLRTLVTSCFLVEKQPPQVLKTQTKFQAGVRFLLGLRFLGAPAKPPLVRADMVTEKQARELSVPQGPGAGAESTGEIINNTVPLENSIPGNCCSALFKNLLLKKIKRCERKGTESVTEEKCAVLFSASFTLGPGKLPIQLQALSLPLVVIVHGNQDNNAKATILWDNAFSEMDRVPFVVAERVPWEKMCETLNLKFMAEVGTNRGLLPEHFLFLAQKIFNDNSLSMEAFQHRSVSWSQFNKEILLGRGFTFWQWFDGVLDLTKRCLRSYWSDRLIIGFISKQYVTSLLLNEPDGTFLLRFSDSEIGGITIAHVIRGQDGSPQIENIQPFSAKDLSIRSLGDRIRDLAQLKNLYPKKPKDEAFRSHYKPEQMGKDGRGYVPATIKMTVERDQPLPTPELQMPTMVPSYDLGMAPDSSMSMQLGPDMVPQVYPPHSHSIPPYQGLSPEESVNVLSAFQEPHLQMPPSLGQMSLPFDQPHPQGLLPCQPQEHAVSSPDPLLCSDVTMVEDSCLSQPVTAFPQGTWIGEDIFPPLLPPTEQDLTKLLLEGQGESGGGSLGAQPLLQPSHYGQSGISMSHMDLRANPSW
Put plainly: MSD-pSTAT-PBMC Assay (pSTAT6, IL-4 stimulated). The class given is cell-based. The note with it: compound 3 hrs, then 1 ng/mL IL-4 for 10 min. Summed up: (§1)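 Phospho-STAT levels captured on anti-STAT3 or anti-STAT6 plates and detected with anti-pY705 or anti-pY641 antibodies (MSD read-out). Cryopreserved human PBMCs received compound for 3 h before a 10 min pulse of IL-6 (10 ng/mL, STAT3) or IL-4 (1 ng/mL, STAT6). IC50 fitted after unstimulated-background subtraction and DMSO normalization.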

In assay [2] the target is T2, pSTAT3 (pY705-STAT3) (Homo sapiens, UniProt P40763).
T2 construct: host or cells: cryopreserved PBMC
T2 sequence (P40763 whole entry): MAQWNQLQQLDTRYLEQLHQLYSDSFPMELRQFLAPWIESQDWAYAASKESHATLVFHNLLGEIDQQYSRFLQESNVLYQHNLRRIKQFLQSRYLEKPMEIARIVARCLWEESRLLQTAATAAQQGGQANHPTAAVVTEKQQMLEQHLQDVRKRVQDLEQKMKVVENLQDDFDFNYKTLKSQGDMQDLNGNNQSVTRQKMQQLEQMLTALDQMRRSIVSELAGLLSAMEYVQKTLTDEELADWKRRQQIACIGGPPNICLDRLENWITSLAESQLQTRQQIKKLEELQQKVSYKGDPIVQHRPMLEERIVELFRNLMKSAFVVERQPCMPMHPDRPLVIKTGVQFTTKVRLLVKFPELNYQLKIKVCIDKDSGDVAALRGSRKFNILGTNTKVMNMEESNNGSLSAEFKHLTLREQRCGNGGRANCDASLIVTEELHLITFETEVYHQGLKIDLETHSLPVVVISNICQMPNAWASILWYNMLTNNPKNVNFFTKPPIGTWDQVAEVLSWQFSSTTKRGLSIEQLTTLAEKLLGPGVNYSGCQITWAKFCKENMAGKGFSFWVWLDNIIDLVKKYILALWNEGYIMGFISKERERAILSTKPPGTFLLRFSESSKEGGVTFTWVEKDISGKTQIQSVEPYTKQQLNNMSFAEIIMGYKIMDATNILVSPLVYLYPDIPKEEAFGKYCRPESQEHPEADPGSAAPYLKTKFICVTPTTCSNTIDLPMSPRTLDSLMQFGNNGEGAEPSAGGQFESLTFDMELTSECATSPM
Put plainly: MSD-pSTAT-PBMC Assay (pSTAT3, IL-6 stimulated). It counts as cell-based. The note with it: PBMC, compound 3 hrs, then 10 ng/mL IL-6 for 10 min; MSD pY705-STAT3; read-out: pSTAT3. Summed up: as §1

Consider `CCCC(=O)SCCOP(=O)(OCCSC(=O)CCC)C(F)(F)c1ccc2sc(C(=O)N[C@H]3C[C@@H]4C[C@@H]4C[C@H]4CC[C@@H](C(=O)N5CC(C(=O)N6CCOCC6)C5)N4C3=O)cc2c1` [Compound 178, S,S′-((((difluoro(2-(((3S,6S,7aS, 8aR,9aR)-3-(3-(morpholine-4-carbonyl)azetidine-1-carbonyl)-5-oxodecahydro-1H-cyclopropa[d]pyrrolo[1,2-a]azocin-6-yl)carbamoyl)benzo[b]thiophen-5-yl)methyl)phosphoryl)bis(oxy))bis(ethane-2,1-diyl)) dibutane-thioate], for which the IC50 in assay [1] is 0.1 to 1 µM; in assay [2], less than 100 nM.

With `CC(C)CC(=O)SCCOP(=O)(OCCSC(=O)CC(C)C)C(F)(F)c1ccc2sc(C(=O)N[C@H]3C[C@H]4C[C@H]4C[C@H]4CC[C@@H](C(=O)N5CC(n6ccnc6)C5)N4C3=O)cc2c1` [Compound 179, S,S′-(((((2-(((3S,6S,7aR, 8aS,9aR)-3-(3-(1H-imidazol-1-yl)azetidine-1-carbonyl)-5-oxodecahydro-1H-cyclopropa[d]pyrrolo[1,2-a]azocin-6-yl)carbamoyl)benzo[b]thiophen-5-yl)difluoromethyl)phosphoryl)bis(oxy))bis(ethane-2,1-diyl)) bis(3-methylbutane thioate)], the IC50 in assay [1] is more than 3 µM; in assay [2], less than 100 nM.

As for `CC(C)(C)C(=O)SCCOP(=O)(OCCSC(=O)C(C)(C)C)C(F)(F)c1ccc2sc(C(=O)NC3CC4CC4CC4CCC(C(=O)N5CC(n6ccnc6)C5)N4C3=O)cc2c1` [Compound 180, S,S′-(((((2-(((3S,6S,7aR, 8aS,9aR)-3-(3-(1H-imidazol-1-yl)azetidine-1-carbonyl)-5-oxodecahydro-1H-cyclopropa[d]pyrrolo[1,2-a]azocin-6-yl)carbamoyl)benzo[b]thiophen-5-yl)difluoromethyl)phosphoryl)bis(oxy))bis(ethane-2,1-diyl)) bis(2,2-dimethyl-propanethioate)], the IC50 in assay [1] was more than 3 µM; in assay [2], less than 100 nM.

Take `CC(C)(C)C(=O)SCCOP(=O)(OCCSC(=O)C(C)(C)C)C(F)(F)c1ccc2sc(C(=O)N[C@H]3C[C@@H]4C[C@@H]4C[C@H]4CC[C@@H](C(=O)N5CC(n6ccnc6)C5)N4C3=O)cc2c1` [Compound 181, S,S′-(((((2-(((3S,6S,7aS, 8aR,9aR)-3-(3-(1H-imidazol-1-yl)azetidine-1-carbonyl)-5-oxodecahydro-1H-cyclopropa[d]pyrrolo[1,2-a]azocin-6-yl)carbamoyl)benzo[b]thiophen-5-yl)difluoromethyl)phosphoryl)bis(oxy))bis(ethane-2,1-diyl)) bis(2,2-dimethyl-propanethioate)]: the IC50 in assay [1] was more than 3 µM; in assay [2], less than 100 nM.

With `CC(C)OC(=O)[C@@H](C)CNP(=O)(Oc1ccccc1)C(F)(F)c1ccc2sc(C(=O)N[C@H]3C[C@@H]4C[C@@H]4C[C@H]4CC[C@@H](C(=O)N5CC(C(=O)N6CCOCC6)C5)N4C3=O)cc2c1` (stereo partly drawn) [Compound 184, isopropyl (2S)-3-(((difluoro(2-(((3S,6S,7aS, 8aR,9aR)-3-(3-(morpholine-4-carbonyl)azetidine-1-carbonyl)-5-oxodecahydro-1H-cyclopropa [d]pyrrolo[1,2-a]azocin-6-yl)carbamoyl)benzo[b]thiophen-5-yl)methyl) (phenoxy)phosphoryl)amino)-2-methyl-propanoate], the IC50 in assay [1] was more than 3 µM; in assay [2] it was more than 3000 nM.

For the compound `CC(C)CC(=O)SCCOP(=O)(Oc1ccccc1)C(F)(F)c1ccc2sc(C(=O)N[C@H]3C[C@@H]4C[C@@H]4C[C@H]4CC[C@@H](C(=O)N5CC(C(=O)N6CCOCC6)C5)N4C3=O)cc2c1` (stereo partly drawn) [Compound 185, S-(2-(((difluoro(2-(((3S,6S,7aS, 8aR,9aR)-3-(3-(morpholine-4-carbonyl)azetidine-1-carbonyl)-5-oxodecahydro-1H-cyclopropa[d]pyrrolo[1,2-a]azocin-6-yl)carbamoyl)benzo[b]thiophen-5-yl)methyl) (phenoxy)phosphoryl)oxy)ethyl) 3-methylbutane thioate], the figures for the IC50 in assay [1] and in assay [2] were more than 3 µM and 100 to 1000 nM, respectively.

As to `CC(C)OC(=O)[C@H](C)NP(=O)(Oc1ccccc1)C(F)(F)c1ccc2sc(C(=O)N[C@H]3C[C@@H]4C[C@@H]4C[C@H]4CC[C@@H](C(=O)N5CC(C(=O)N6CCOCC6)C5)N4C3=O)cc2c1` (stereo partly drawn) [Compound 186, isopropyl ((difluoro(2-(((3S,6S,7aS, 8aR,9aR)-3-(3-(morpholine-4-carbonyl)azetidine-1-carbonyl)-5-oxodecahydro-1H-cyclopropa[d]pyrrolo[1,2-a]azocin-6-yl)carbamoyl)benzo[b]thiophen-5-yl)methyl) (phenoxy)phosphoryl)-L-alaninate], the figures for the IC50 in assay [1] and in assay [2] were more than 3 µM and more than 3000 nM, respectively.

For `CC(C)(C)C(=O)OCOP(=O)(OCOC(=O)C(C)(C)C)C(F)(F)c1ccc2sc(C(=O)N[C@H]3C[C@H]4C[C@H]4C[C@H]4CC[C@@H](C(=O)N5CC(c6cccnc6)C5)N4C3=O)cc2c1` [Compound 187, (((difluoro(2-(((3S,6S,7aR, 8aS,9aR)-5-oxo-3-(3-(pyridin-3-yl)azetidine-1-carbonyl)decahydro-1H-cyclopropa[d]pyrrolo[1,2-a]azocin-6-yl)carbamoyl)benzo[b]thiophen-5-yl)methyl)phosphoryl)bis(oxy)) bis(methylene) bis(2,2-dimethyl-propanoate)], the IC50 in assay [1] is 0.1 to 1 µM; in assay [2] it was less than 100 nM.

`CCCC(=O)SCCOP(=O)(OCCSC(=O)CCC)C(F)(F)c1ccc2sc(C(=O)N[C@H]3C[C@@H]4C[C@@H]4C[C@H]4CC[C@@H](C(=O)N5CC(n6ccnc6)C5)N4C3=O)cc2c1` [Compound 188, S,S′-(((((2-(((3S,6S,7aS, 8aR,9aR)-3-(3-(1H-imidazol-1-yl)azetidine-1-carbonyl)-5-oxodecahydro-1H-cyclopropa[d]pyrrolo[1,2-a]azocin-6-yl)carbamoyl)benzo[b]thiophen-5-yl)difluoromethyl)phosphoryl)bis(oxy))bis(ethane-2,1-diyl)) dibutanethioate]: the results for the IC50 in assay [1] and in assay [2] were 0.1 to 1 µM and less than 100 nM, respectively.

Take `CC(C)OC(=O)OCOP(=O)(OCOC(=O)OC(C)C)C(F)(F)c1ccc2sc(C(=O)N[C@H]3C[C@H]4C[C@H]4C[C@H]4CC[C@@H](C(=O)N5CC(c6cccnc6)C5)N4C3=O)cc2c1` [Compound 189, (((difluoro(2-(((3S,6S,7aR, 8aS,9aR)-5-oxo-3-(3-(pyridin-3-yl)azetidine-1-carbonyl)decahydro-1H-cyclopropa[d]pyrrolo[1,2-a]azocin-6-yl)carbamoyl)benzo[b]thiophen-5-yl)methyl)phosphoryl)bis(oxy)) bis(methylene) diisopropyl bis(carbonate)]: the IC50 in assay [1] was 1 to 3 µM; in assay [2] it was less than 100 nM.

Regarding `CC(C)CC(=O)SCCOP(=O)(Oc1ccccc1)C(F)(F)c1ccc2sc(C(=O)N[C@H]3C[C@H]4C[C@H]4C[C@H]4CC[C@@H](C(=O)N5CC(c6cccnc6)C5)N4C3=O)cc2c1` (stereo partly drawn) [Compound 193, S-(2-(((difluoro(2-(((3S,6S,7aR, 8aS,9aR)-5-oxo-3-(3-(pyridin-3-yl)azetidine-1-carbonyl)decahydro-1H-cyclopropa[d]pyrrolo[1,2-a]azocin-6-yl)carbamoyl)benzo[b]thiophen-5-yl)methyl) (phenoxy)phosphoryl)oxy)ethyl) 3-methylbutane thioate], the IC50 was more than 3 µM in assay [1] and less than 100 nM in assay [2].

Turning to `CC(C)(C)C(=O)SCCOP(=O)(Oc1ccccc1)C(F)(F)c1ccc2sc(C(=O)N[C@H]3C[C@H]4C[C@H]4C[C@H]4CC[C@@H](C(=O)N5CC(n6ccnc6)C5)N4C3=O)cc2c1` (stereo partly drawn) [Compound 195, S-(2-((((2-(((3S,6S,7aR, 8aS,9aR)-3-(3-(1H-imidazol-1-yl)azetidine-1-carbonyl)-5-oxodecahydro-1H-cyclopropa[d]pyrrolo[1,2-a]azocin-6-yl)carbamoyl)benzo[b]thiophen-5-yl)difluoromethyl) (phenoxy)phosphoryl)oxy)ethyl) 2,2-dimethyl-propanethioate], the IC50 is more than 3 µM in assay [1] and 100 to 1000 nM in assay [2].
